Reference: patent US4464371A, “Five-membered heterocyclic compounds” (Santen Pharmaceutical Co., Ltd., priority 1980, dated 1984)

Tests used:
[1] = test system: blood pressure of spontaneously hypertensive rats; assay: Hypotensive effect in spontaneously hypertensive rats (oral, indirect tail-cuff method); type: in vivo, Male spontaneously hypertensive rats (Charles River); conditions: 10 mg/Kg and 30 mg/Kg, suspended in 0.5% tragacanth, male spontaneously hypertensive rats
Procedure: Male spontaneously hypertensive rats (Charles River) weighing 370-430 g (37-43 weeks of age) were used.
The subject compound, suspended in 0.5% tragacanth, was given orally to the animals. Their blood pressure was measured by indirect tail-cuff method using a programmed electrosphygmomanometer.
In the figure, line 1 and line 2 represent the hypotensive effect by the compound of this invention at doses of 30 mg/Kg and 10 mg/Kg, respectively, line 3 that by the reference compound at a dose of 30 mg/Kg, and line 4 control (no drugs).

Acute toxicity test = type: in vivo, male mice; conditions: mouse, in vivo; intravenous, administered as aqueous sodium hydroxide solution, male mice
Source text: (§1) Acute toxicity of (2R,4R)--3--[S--[4--(dipropylsulfamoyl)--benzoyl]--3--mercaptopropionyl]-- 2--(2--hydroxyphenyl)--4--thiazolidinecarboxylic acid is shown in the table.
(§2) *^1 administered as tragacanth
(§3) *^2 administered as aqueous sodium hydroxide solution
(§4) Animals used in this test were ten male mice in each route.

mice = assay: Acute toxicity test; type: in vivo, male mice
Source text: as §1, §2, §3, §4

CCCN(CCC)S(=O)(=O)c1ccc(C(=O)SCCC(=O)N2[C@@H](c3ccccc3O)SC[C@H]2C(=O)O)cc1 [Example 1, (2R,4R)--3--[S--[4--(Dipropylsulfamoyl)benzoyl]--3--mercaptopropionyl]--2-- (2--hydroxyphenyl)--4--thiazolidinecarboxilic acid]
decrease of blood pressure (hypotensive effect) [1]: clearly decreased the blood pressure | LD50 (Acute toxicity test): > 500 mg/kg | LD50 (deaths observed) (mice; mouse, in vivo, po, 1000 mg/kg): No death was observed | acute toxicity (overall) (mice; oral and intravenous, male mice): low toxicity
